“Also recorded” adds a separate entry of the source.
Columns and labels:
[1] = system: Mammary Tumors Induced by Dimethylbenz(a)anthracene; experiment: Effects on mammary tumors induced by dimethylbenz(a)anthracene (DMBA), s.c. injection for 35 days; format: in vivo, Sprague-Dawley rats; settings: for Mean tumor volume / Mean tumor no. (no. tumors/rat): 24 mg/kg s.c., 35 days, 7-10 rats/group, mean ± S.D.; for Mean tumor volume: control (None) 1.48 ± 2.09; for Mean tumor no. (no. tumors/rat): control (None) 3.30 ± 2.60; for significance of treatment results (in words): compared to control tumors, Student's t test
Source text: Chemicals and Reagents. Estrone, 17-beta-estradiol 3-benzoate, estrone sulfate, aryl sulfatase (EC 3.1.6.1), beta-glucuronidase (EC3.2.1.31), 7,12-dimethylbenz(a)anthracene (DMBA), and 5-fluorouracil were obtained from Sigma Chemical Co. (St. Louis, Mo.). 4-Nitroestrone 3-methyl ether, 4-nitroestrone, and 2,4-dinitroestrone were synthesized by the procedures of Tomson et al., supra.
Animals. Virgin female Sprague-Dawley rats (The Charles River Co., Wilmington, Mass.) were housed 4 to 6/cage in a light (12 hr/day)--and temperature (24°)--controlled room and given a diet of Wayne Lab-Blox laboratory chow (Allied Mills, Inc., Chicago, Ill.) and tap water ad libitum. At 50 days of age, rats were intubated with DMBA (10 mg/100 g body weight) dissolved in sesame oil (20 mg/ml). Beginning at Day 45 after intubation, all animals were weighed and palpated once per week. Tumor volumes were calculated by measuring 2 diameters with a caliper and the third dimension with a ruler, then by substituting values:
where a, b, and c are the 3 different diameters of the tumor. The agreement of the in vivo tumor volume and measurements of excised tumors identified at necropsy was 95 to 99%. When about 75% of rats had palpable tumors (81 to 92 days after intubation), the animals were randomized, excluding rats with tumors larger than 2.00 ml and rats with more than 5 tumors/animal. The mean initial tumor volumes in control and treated groups ranged between 0.4 and 0.9 cu cm over the various experiments. When necessary, ovariectomy (ether anesthesia) was performed on the first or second day after the initiation of the study. The significance of difference between treatment groups was examined by Student's t test.
Estrogen derivatives (>99% pure by thin-layer chromatography) were injected s.c. daily (Monday to Friday). After distribution in SSV (steroid-suspending vehicles, 0.9% NaCl solution with 0.5% sodium carboxymethyl-cellulose-7, 0.4% polysorbate; and 0.9% benzylalcohol, obtained from the National Cancer Institute), the steroids (20 mg/ml) were administered at 0.12 to 54 mg/kg body weight. The suspension was sonicated before use to achieve uniform distribution. 17-Beta-estradiol 3-benzoate was dissolved directly in sesame oil to a concentration of 2.5 mg/ml; 5 fluorouracil was dissolved in water (25 mg/ml). The control group was given injections of SSV or sesame oil alone.
The toxicity of all antitumor agents was determined by comparing body weights of treated and control animals.
Postmortem Examination and Histopathology of Tumors. Rats were selected for colchicine injections (2 mg/kg body weight) 2 hr prior to necropsy to obtain an accurate measurement of mitotic indices of tumors. Animals were sacrificed with CO2 gas or bled to death via the abdominal aorta. Tumors and tissues were removed and preserved in 10% neutral buffered formalin for histopathological examination. Gross anomalies of abdominal, thoracic, and cranial cavities were recorded. Uteri were removed, trimmed, and weighed fresh. Ovaries, adrenals, and pituitaries were trimmed and weighed after fixation.
Histopathological observations on hematoxylin-and iosin-stained tumor and organ sections were performed, and comparisons between the control and treated groups were carried out using computer analysis. The microscopic parameters used to judge the degree of anaplasia in DMBA-induced mammary neoplasms, when treated animals were compared to controls, were: (a) the type of epithelium or mammary tissue involved; (b) the degree of encapsulation of the neoplasm; (c) the number of mitotic figures observed; (d) the extent of stroma invasions of the neoplastic epithelium; (e) the severity of lymphocytic infiltration of the neoplasms; and (f) the regressive, degenerative, or vacuolative changes in the neoplastic epithelium. […] Histological examination was performed on all mammary tumors. […]

[2] = system: MXT Mouse Mammary Ductal Carcinoma; experiment: Subcutaneous treatment of early stage, hormone-dependent MXT mouse mammary ductal carcinoma; format: in vivo
[3] = target: T1, Porcine Endometrial Estrogen Sulfotransferase (Sus scrofa, UniProt A0A286ZW98); experiment: Inhibition of porcine endometrial estrogen sulfotransferase; format: biochemical; settings: compared within Table III
T1 construct: from tissue; host or cells: porcine endometrium
T1 sequence (A0A286ZW98 1-296): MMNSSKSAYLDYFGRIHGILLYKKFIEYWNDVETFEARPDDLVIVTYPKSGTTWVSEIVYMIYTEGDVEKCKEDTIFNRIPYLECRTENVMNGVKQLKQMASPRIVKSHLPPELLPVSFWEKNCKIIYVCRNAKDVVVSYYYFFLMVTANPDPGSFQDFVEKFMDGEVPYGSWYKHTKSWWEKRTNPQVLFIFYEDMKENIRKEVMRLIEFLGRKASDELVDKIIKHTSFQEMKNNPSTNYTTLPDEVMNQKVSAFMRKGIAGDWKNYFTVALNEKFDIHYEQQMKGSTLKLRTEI
Procedure: Compounds prepared in the foregoing examples were evaluated as inhibitors of porcine estrogen sulfotransferase as taught by Rozhin et al., J. Biol. Chem., 252:7214-7220 (1977) and Brooks et al., U.S. Pat. No. 4,496,555.

[4] = system: hormone dependent mammary tumors, induced by 7,12-dimethylbenz(a)anthracene; settings: cited from earlier work

Compound: COc1c(Br)cc2c(c1Br)CC[C@@H]1[C@@H]2CC[C@]2(C)C(=O)CC[C@@H]12 [2,4-Dibromoestrone 3-methyl ether, 2,4-dibromoestrone 3-methyl ether]
- Mean tumor volume [1]: 1.24 ± 1.07 cu cm
- Mean tumor no. (no. tumors/rat) [1]: 4.26 ± 2.51 no. tumors/rat
- significance of treatment results (in words) [1]: insignificant

Compound: C[C@]12CC[C@@H]3c4cc([N+](=O)[O-])c(O)c([N+](=O)[O-])c4CC[C@H]3[C@@H]1CCC2=O [2,4-Dinitroestrone, 2,4-dinitroestrone]
- Mean tumor volume [1]: 1.14 ± 1.37 cu cm
- Mean tumor no. (no. tumors/rat) [1]: 2.90 ± 1.67 no. tumors/rat
- significance of treatment results (in words) [1]: insignificant

Compound: C[C@]12CC[C@@H]3c4cccc([N+](=O)[O-])c4CC[C@H]3[C@@H]1CC[C@@H]2O [4-Nitroestra-1,3,5(10)-trien-17-beta-ol]
- growth of MXT mouse mammary ductal carcinoma (in words) ([2]; mouse, in vivo): inhibited the growth of MXT mouse mammary ductal carcinoma; also recorded: shown to inhibit the growth of murine MXT mammary ductal carcinoma
- T/C Value Day 39 (%) ([2]; s.c. 200 mg/kg, QD 1-19): 8.2%
- Time for Median Tumor to Reach 500 mg ([2]; s.c. 200 mg/kg, QD 1-19, control 18): 45
- estrogen sulfotransferase inhibitory activity (in words) [3]: most active compound

Compound: COc1ccc2c(c1[N+](=O)[O-])CC[C@@H]1[C@@H]2CC[C@]2(C)C(=O)CC[C@@H]12 [4-Nitroestrone 3-methyl ether, 4-Nitroestrone 3-Methyl Ether]
- Mean tumor volume [1]: 0.05 ± 0.05 cu cm
- Mean tumor no. (no. tumors/rat) [1]: 1.35 ± 0.40 no. tumors/rat
- growth of hormone dependent mammary tumors (in words) ([4]; DMBA-induced): found to inhibit the growth of hormone dependent mammary tumors
- route of administration to which utility is limited (in words) ([4]; particularly intraperitoneal or subcutaneous injection): essentially limited to parental administration

Compound: C[C@]12CC[C@@H]3c4ccc(O)c([N+](=O)[O-])c4CC[C@H]3[C@@H]1CCC2=O [4-Nitroestrone, 4-nitroestrone]
- Mean tumor volume [1]: 0.75 ± 0.10 cu cm
- Mean tumor no. (no. tumors/rat) [1]: 1.95 ± 2.60 no. tumors/rat
- significance of treatment results (in words) [1]: insignificant
